Read-outs that look alike come from different tables or passages of the source.
What was measured:
[1] = tested on: A. baumannii; test: MIC, broth microdilution, CDC/FDA Antibiotic Resistance Isolate Bank (Example 7, Tables 9, 13, 14); format: cell-based, Acinetobacter baumannii; details: for MIC: read-out: MIC
[2] = tested on: Enterobacterales; test: MIC, broth microdilution, CDC/FDA Antibiotic Resistance Isolate Bank (Example 7, Tables 8, 11, 12); format: cell-based; details: read-out: MIC
[3] = MIC distribution, metallo-β-lactamase-producing A. baumannii, inhibitor µg/mL in parentheses

C[C@H]1COc2c(N3CCN(C)CC3)c(F)cc3c(=O)c(C(=O)O)cn1c23 [Levofloxacin, levofloxacin]
0.12 µg/mL: MIC ([2]; Enterobacter cloacae, Enterobacter cloacae complex, KUB No. 5661, AR Bank # 164) | MIC ([2]; Enterobacter cloacae, KUB No. 5778, AR Bank # 432) | MIC ([2]; Escherichia coli, Escherichia coli KUB No. 5794, AR Bank #450)
3: Number of isolates at MIC 8 µg/mL [1, 3]
0.06 µg/mL: MIC ([2]; Enterobacter cloacae, Enterobacter cloacae group, KUB No. 5629, AR Bank # 132) | MIC ([2]; Enterobacter cloacae, KUB No. 5557, AR Bank# 60) | MIC ([2]; Escherichia coli, KUB No. 5764, AR Bank # 368) | MIC ([2]; Escherichia coli, KUB No. 5765, AR Bank # 369)
32 µg/mL: MIC ([1]; Acinetobacter baumannii, KUB No. 5727, AR Bank #294) | MIC ([1]; Acinetobacter baumannii, KUB No. 5729, AR Bank #296) | MIC ([1]; Acinetobacter baumannii, KUB No. 5730, AR Bank #297) | MIC ([1]; Acinetobacter baumannii, KUB No. 5739, AR Bank #306) | MIC ([1]; Acinetobacter baumannii, KUB No. 5743, AR Bank #310) | MIC80 ([1]; Acinetobacter baumannii, 55 isolates of A. baumannii, read-out: MIC80) | MIC ([2]; Enterobacter cloacae, KUB No. 5550, AR Bank# 53) | MIC ([2]; Enterobacter cloacae, KUB No. 5660, AR Bank # 163) | MIC ([2]; Escherichia coli, Escherichia coli KUB No. 5783, AR Bank #437) | MIC ([2]; Escherichia coli, Escherichia coli KUB No. 5795, AR Bank #451) | MIC ([2]; Escherichia coli, KUB No. 5611, AR Bank # 114) | MIC ([2]; Escherichia coli, KUB No. 5615, AR Bank # 118) | MIC ([2]; Escherichia coli, KUB No. 5616, AR Bank # 119) | MIC ([2]; Escherichia coli, KUB No. 5625, AR Bank # 128) | MIC ([2]; Escherichia coli, KUB No. 5647, AR Bank # 150) | MIC ([2]; Escherichia coli, KUB No. 5648, AR Bank # 151) | MIC ([2]; Escherichia coli, KUB No. 5659, AR Bank # 162) | MIC ([2]; Escherichia coli, KUB No. 5769, AR Bank # 373) | MIC ([2]; Escherichia coli, KUB No. 5770, AR Bank # 374) | MIC ([2]; Escherichia coli, KUB No. 5779, AR Bank # 433) | MIC ([2]; Escherichia coli, KUB No. 5781, AR Bank # 435) | MIC ([2]; Escherichia, KUB No. 57, AR Bank # 436 (row cut off))
1 µg/mL: MIC ([2]; Enterobacter cloacae, Enterobacter cloacae KUB No. 5807, AR Bank #501) | MIC ([2]; Enterobacter cloacae, KUB No. 5529, AR Bank# 32) | MIC ([2]; Enterobacter cloacae, KUB No. 5763, AR Bank # 367) | MIC ([2]; Enterobacter cloaccae, KUB No. 5651, AR Bank # 154)
> 64 µg/mL: MIC ([1]; Acinetobacter baumannii, KUB No. 5721, AR Bank #288) | MIC ([1]; Acinetobacter baumannii, KUB No. 5735, AR Bank #302) | MIC ([2]; Citrobacter freundii, KUB No. 5654, AR Bank # 157) | MIC ([2]; Enterobacter cloacae, Enterobacter cloacae KUB No. 5792, AR Bank #448)
8 µg/mL: MIC ([1]; Acinetobacter baumannii, KUB No. 5719, AR Bank #286) | MIC ([1]; Acinetobacter baumannii, KUB No. 5723, AR Bank #290) | MIC ([1]; Acinetobacter baumannii, KUB No. 5724, AR Bank #291) | MIC ([1]; Acinetobacter baumannii, KUB No. 5731, AR Bank #298) | MIC ([1]; Acinetobacter baumannii, KUB No. 5746, AR Bank #313) | MIC ([2]; Enterobacter cloacae, Enterobacter cloacae KUB No. 5808, AR Bank #502) | MIC ([2]; Enterobacter cloacae, KUB No. 5547, AR Bank# 50) | MIC ([2]; Escherichia coli, KUB No. 5646, AR Bank # 149) | MIC ([2]; Escherichia coli, KUB No. 5774, AR Bank # 378)
0.5 µg/mL: MIC ([2]; Enterobacter cloacae, KUB No. 5762, AR Bank # 366)
1: Number of isolates at MIC 16 µg/mL [1, 3]
16 µg/mL: MIC ([1]; Acinetobacter baumannii, KUB No. 5720, AR Bank #287) | MIC ([1]; Acinetobacter baumannii, KUB No. 5722, AR Bank #259) | MIC ([1]; Acinetobacter baumannii, KUB No. 5728, AR Bank #295) | MIC ([1]; Acinetobacter baumannii, KUB No. 5734, AR Bank #301) | MIC ([1]; Acinetobacter baumannii, KUB No. 5736, AR Bank #303) | MIC ([1]; Acinetobacter baumannii, KUB No. 5737, AR Bank #304) | MIC ([1]; Acinetobacter baumannii, KUB No. 5738, AR Bank #305) | MIC ([1]; Acinetobacter baumannii, KUB No. 5740, AR Bank #307) | MIC ([1]; Acinetobacter baumannii, KUB No. 5741, AR Bank #308) | MIC50 ([1]; Acinetobacter baumannii, 55 isolates of A. baumannii, read-out: MIC50) | MIC ([2]; Enterobacter clooreae, KUB No. 5633, AR Bank # 136) | MIC ([2]; Escherichia coli, Escherichia coli KUB No. 5803, AR Bank #861) | MIC ([2]; Escherichia coli, KUB No. 5601, AR Bank # 104) | MIC ([2]; Escherichia coli, KUB No. 5766, AR Bank # 370) | MIC ([2]; Escherichia coli, KUB No. 5767, AR Bank # 371) | MIC ([2]; Escherichia coli, KUB No. 5768, AR Bank # 372) | MIC ([2]; Escherichia coli, KUB No. 5780, AR Bank # 434)
64 µg/mL: MIC ([1]; Acinetobacter baumannii, KUB No. 5732, AR Bank #299) | MIC ([1]; Acinetobacter baumannii, KUB No. 5733, AR Bank #300) | MIC ([1]; Acinetobacter baumannii, KUB No. 5742, AR Bank #309) | MIC90 ([1]; Acinetobacter baumannii, 55 isolates of A. baumannii, read-out: MIC90) | MIC ([2]; Enterobacter cloacae, KUB No. 5535, AR Bank# 38) | MIC ([2]; Escherichia coli, Escherichia coli KUB No. 5796, AR Bank #452) | MIC ([2]; Escherichia coli, KUB No. 5634, AR Bank # 137)
4 µg/mL: MIC ([1]; Acinetobacter baumannii, KUB No. 5725, AR Bank #292) | MIC ([1]; Acinetobacter baumannii, KUB No. 5726, AR Bank #293) | MIC ([1]; Acinetobacter baumannii, KUB No. 5744, AR Bank #311) | MIC ([1]; Acinetobacter baumannii, KUB No. 5745, AR Bank #312) | MIC ([2]; Enterobacter cloacae, KUB No. 5761, AR Bank # 365)
